PMC10477481 (The Journal of Biological Chemistry, 2023)

Assays:
[1] = test system: kallikrein; conditions: cited from earlier work
From the text: Therefore, we produced a CTX-displaying phage clone, customized, and validated the flow cytometry–based cobalt-coated bead test for quantitative assessment of the binding tendency of ligand-displaying phages to target proteins immobilized on the surface of microbeads. To support the validation and to investigate the specificity of bind ...

[2] = target: T1, recombinant human active MMP-2 (Homo sapiens, UniProt P08253); assay type: biochemical; conditions: pH 7.4
T1 construct: the mature active enzyme (amino acids: 110–660), expressed in E. coli (Sigma, catalog no.: SRP3118); purchased Sigma SRP3118; host or cells: E. coli
T1 sequence (P08253 110-660): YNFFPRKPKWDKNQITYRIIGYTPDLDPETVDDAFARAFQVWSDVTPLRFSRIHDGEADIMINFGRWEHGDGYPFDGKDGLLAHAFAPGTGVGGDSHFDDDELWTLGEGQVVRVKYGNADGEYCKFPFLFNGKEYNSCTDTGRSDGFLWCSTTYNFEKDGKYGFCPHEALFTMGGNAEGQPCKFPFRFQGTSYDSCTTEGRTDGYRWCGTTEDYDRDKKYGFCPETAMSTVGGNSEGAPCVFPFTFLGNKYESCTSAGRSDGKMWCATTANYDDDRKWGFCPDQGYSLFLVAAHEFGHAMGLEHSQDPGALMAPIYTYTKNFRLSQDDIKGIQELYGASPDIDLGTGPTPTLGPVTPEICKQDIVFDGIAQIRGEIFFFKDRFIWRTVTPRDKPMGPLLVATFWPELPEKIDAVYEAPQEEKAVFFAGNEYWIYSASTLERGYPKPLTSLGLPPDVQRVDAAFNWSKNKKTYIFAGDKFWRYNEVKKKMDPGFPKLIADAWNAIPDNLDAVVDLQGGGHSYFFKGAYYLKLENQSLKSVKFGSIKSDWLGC
Procedure: The assay was performed using fluorogenic dye-quenched (DQ)-gelatin from pig skin (ThermoFisher Scientific) as substrate and recombinant human MMP-2 enzyme (Sigma; catalog no.: SRP3118), dissolved in water (100 μg/ml), and diluted further in reaction buffer (50 mM Tris, 150 mM NaCl, 5 mM CaCl2, pH = 7.4). The assay (and control) reactions were composed by loading 50 μl enzyme (or buffer), 40 μl inhibitor (or buffer), and 10 μl substrate (or buffer) into wells of a 96-well plate (PS, black, half-area, clear-bottom; Greiner Bio-One) at concentrations needed for the stated final concentrations. […] Immediately thereafter, the plate was placed in a fluorescence plate reader (SpectraMax iD3; Molecular Devices), and fluorescence was measured every 15 min for 3 h (KM measurements) or every 5 min for 1 h (inhibitor measurements) at 37 °C (λexcitation = 484 nm and λemission = 525 nm). KM was determined by measuring V0 at a series of substrate concentrations (1.25, 2.5, 5, 10, 20, and 40 μg/ml) and enzyme concentrations of 2.5, 5, and 10 nM. Thereafter, the lowest enzyme concentration with reasonably good signal-to-noise ratio (2.5 nM) and a substrate concentration (3.5 μg/ml) approximately equivalent with the determined KM value (3.4 μg/ml, i.e., 34 nmol/l as calculated with approximate MW of 100,000 g/mol for DQ gelatin) were applied in the enzyme inhibition study. […]

[3] = target: matrix metalloproteinase 2, recombinant (which of the four preparations is not told) (human) (UniProt P08253); test: flow cytometry of protein-coated microbeads (Ig-coated bead test); KD estimated by the authors from the direct binding assays with labeled CTX and the competitive displacement studies together
[4] = test system: pro-MMP-2 activated by APMA; conditions: fluorescence-quenched MMP-specific peptide substrate; read-out: KM of FS-6 with MMP; cited from earlier work
Procedure: The assay was performed using a fluorescence-quenched MMP-specific peptide substrate FS-6 (Sigma; catalog no.: SCP0193, KM >30 μM) ([20]). Recombinantly produced human proMMP2 enzyme, dissolved in reaction buffer (70 mM Tris [pH 8.0], 150 mM NaCl, 5 mM CaCl2, 1 μM ZnCl2, and 0.05% Brij-35) at a concentration of 500 nM, was activated by addition of 1 mM APMA and incubated at 37 °C for 1 h. The assay reaction was then composed by adding 0.5 μl activated enzyme to yield a final concentration of 2.5 nM, 94.5 μl test substance (inhibitor) in reaction buffer, and finally 5 μl substrate to reach a fi ...

For ecallantide [DX-88], which affinity to kallikrein [1] is on record?
Its affinity to kallikrein is “subnanomolar affinity”.

With `CNC(=O)[C@H](Cc1c[nH]c2ccccc12)NC(=O)[C@@H](CC(=O)NO)CC(C)C` [Ilomastat, ilomastat] as the compound, how does the “effect on gelatinolytic activity of MMP-2” value [2] read?
The value was “concentration-dependent inhibition”.

For “chlorotoxin, synthetically produced, with carboxamide C terminus (from UniProt P45639 1-36) (peptide)”, which Kd [3] is on record?
Its Kd is 500 to 600 nM.

For “Mca-Lys-Pro-Leu-Gly-Leu-Dpa-Ala-Arg-NH2 [FS-6, fluorescence-quenched MMP-specific peptide substrate]”, which Km [4] is on record?
The Km was greater than 30 µM.
